{"source": "patent US4287194A", "about": "“Compositions with potentiated hypotensive effects” (priority 1978, dated 1981)", "key": {"[1]": {"test_system": "genetically hypertensive awake rats", "assay": "Hypotensive effect on awake rats suffering from genetic hypertension (method of Eaton, modified)", "assay_type": "in vivo, Wistar-Okamoto rats"}, "[2]": {"test_system": "awake dogs with renal hypertension", "assay": "Hypotensive effect on awake dogs suffering from renal hypertension (Grollman operation)", "assay_type": "in vivo", "excerpt": "(2) Determination of the hypotensive effect on awake dogs suffering from renal hypertension"}, "[3]": {"assay": "Oral acute toxicity (LD50) of the individual components, one week observation", "settings": "mouse, in vivo", "description": "Based on the data given in points 1 and 2 above it can be stated that a considerable potentiating synergism appears with respect to the hypotensive effect when applying the compounds of formula (I) in combination with those of formula (V). In the following it was investigated whether this synergism also appears with respect to the toxicity. In the first test series the LD50 values of the individual components were determined on CFLP-mice. The compounds were administered orally, and the animals were kept under observation for one week. The LD50 values of the individual compounds are as follows: […]"}, "[4]": {"assay": "Toxicity (mortality) of combinations: pre-treatment for one hour with 11,473 or 11,121, then pindolol", "design": "species or system CFLP-mice", "settings": "mouse, in vivo, po", "description": "Based on the data given in points 1 and 2 above it can be stated that a considerable potentiating synergism appears with respect to the hypotensive effect when applying the compounds of formula (I) in combination with those of formula (V). In the following it was investigated whether this synergism also appears with respect to the toxicity. In the first test series the LD50 values of the individual components were determined on CFLP-mice. The compounds were administered orally, and the animals were kept under observation for one week. The LD50 values of the individual compounds are as follows:\nTo determine the toxicity values of the combinations dosages calculated on the basis of the isobole construction principle were applied. The animals were pre-treated for one hour with various dosages of 11,473 or 11,121, and then varying dosages of pindolol were administered."}}, "note": "Where “and” joins values, the source holds several entries; their conditions need not be identical. Identical values can stand only once.", "data": [{"smiles": "CC(C)NCC(O)COc1cccc2[nH]ccc12.Cl", "note": "(stereo not drawn) [Pindolol, 1-(4-indolyloxy)-3-isopropylamino-2-propanol hydrochloride]", "values": [{"measurement": "Blood pressure after 2 hours", "setting": "[1]; 0.25 mg/kg p.o., hydrochloride", "result": "180.8 mmHg and 181.6 mmHg"}, {"measurement": "Blood pressure after 5 hours", "setting": "[1]; 0.25 mg/kg p.o., hydrochloride", "result": "164.9 mmHg and 168.8 mmHg"}, {"measurement": "Blood pressure after 24 hours", "setting": "[1]; 0.25 mg/kg p.o., hydrochloride", "result": "183.4 mmHg and 188.8 mmHg"}, {"measurement": "Blood pressure, basal value", "setting": "[1]; 0.25 mg/kg p.o., basal value (before treatment), hydrochloride", "result": "182.2 mmHg and 184.4 mmHg"}, {"measurement": "Blood pressure after 2 hours", "setting": "[1]; 0.5 mg/kg p.o., hydrochloride", "result": "161.4 mmHg and 191.2 mmHg and 172.1 mmHg"}, {"measurement": "Blood pressure after 5 hours", "setting": "[1]; 0.5 mg/kg p.o., hydrochloride", "result": "160.5 mmHg and 188.3 mmHg and 160.8 mmHg"}, {"measurement": "Blood pressure after 24 hours", "setting": "[1]; 0.5 mg/kg p.o., hydrochloride", "result": "150.5 mmHg and 188.9 mmHg and 188.6 mmHg"}, {"measurement": "Blood pressure, basal value", "setting": "[1]; 0.5 mg/kg p.o., basal value, hydrochloride", "result": "165.0 mmHg and 200.0 mmHg and 200.3 mmHg"}, {"measurement": "Blood pressure after 2 hours", "setting": "[1]; 1 mg/kg p.o.", "result": 135.0, "unit": "mmHg"}, {"measurement": "Blood pressure after 5 hours", "setting": "[1]; 1 mg/kg p.o.", "result": 135.0, "unit": "mmHg"}, {"measurement": "Blood pressure after 24 hours", "setting": "[1]; 1 mg/kg p.o.", "result": 151.1, "unit": "mmHg"}, {"measurement": "Blood pressure, basal value", "setting": "[1]; 1 mg/kg p.o., basal value", "result": 164.4, "unit": "mmHg"}, {"measurement": "Blood pressure after 2 hours", "setting": "[1]; 5 mg/kg p.o.", "result": 154.5, "unit": "mmHg"}, {"measurement": "Blood pressure after 5 hours", "setting": "[1]; 5 mg/kg p.o.", "result": 124.5, "unit": "mmHg"}, {"measurement": "Blood pressure after 24 hours", "setting": "[1]; 5 mg/kg p.o.", "result": 161.0, "unit": "mmHg"}, {"measurement": "Blood pressure, basal value", "setting": "[1]; 5 mg/kg p.o., basal value", "result": 172.5, "unit": "mmHg"}, {"measurement": "ED30", "setting": "[1]; Rattus norvegicus, po, read-out: ED30% (dosage which decreases the blood pressure by 30% related to the value before treatment), p.o., given alone", "result": "~5", "unit": "mg/kg"}, {"measurement": "ED30% (dosage which decreases the blood pressure by 30% related to the value before treatment)", "setting": "[1]; p.o., given alone, hydrochloride", "result": 5, "unit": "mg/kg"}, {"measurement": "Blood pressure after 1 hour", "setting": "[2]; 0.1 mg/kg p.o.", "result": 133.3, "unit": "mmHg"}, {"measurement": "Blood pressure after 2 hours", "setting": "[2]; 0.1 mg/kg p.o.", "result": 133.3, "unit": "mmHg"}, {"measurement": "Blood pressure after 3 hours", "setting": "[2]; 0.1 mg/kg p.o.", "result": 153.0, "unit": "mmHg"}, {"measurement": "Blood pressure after 4 hours", "setting": "[2]; 0.1 mg/kg p.o.", "result": 156.7, "unit": "mmHg"}, {"measurement": "Blood pressure after 5 hours", "setting": "[2]; 0.1 mg/kg p.o.", "result": 160.0, "unit": "mmHg"}, {"measurement": "Blood pressure after 24 hours", "setting": "[2]; 0.1 mg/kg p.o.", "result": 153.3, "unit": "mmHg"}, {"measurement": "Blood pressure, basal value", "setting": "[2]; 0.1 mg/kg p.o.", "result": 156.7, "unit": "mmHg"}, {"measurement": "LD50 at 168 h", "setting": "[3]", "result": 300, "unit": "mg/kg"}, {"measurement": "mortality", "setting": "[4]; pindolol alone 60 mg/kg p.o.", "result": 0, "unit": "%"}, {"measurement": "mortality", "setting": "[4]; pindolol alone 90 mg/kg p.o.", "result": 0, "unit": "%"}, {"measurement": "mortality", "setting": "[4]; pindolol alone 135 mg/kg p.o.", "result": 8, "unit": "%"}, {"measurement": "mortality", "setting": "[4]; pindolol alone 200 mg/kg p.o.", "result": 16, "unit": "%"}, {"measurement": "mortality", "setting": "[4]; pindolol alone 300 mg/kg p.o.", "result": 46, "unit": "%"}, {"measurement": "mortality", "setting": "[4]; pindolol alone 450 mg/kg p.o.", "result": 75, "unit": "%"}]}, {"smiles": "COC(=O)c1ccc(O)c(CON)c1.Cl", "note": "[11,121, 2-hydroxy-5-carbomethoxy-benzyloxyamine hydrochloride]", "values": [{"measurement": "Blood pressure after 2 hours", "setting": "[1]; 50 mg/kg p.o.", "result": 170.0, "unit": "mmHg"}, {"measurement": "Blood pressure after 5 hours", "setting": "[1]; 50 mg/kg p.o.", "result": 163.0, "unit": "mmHg"}, {"measurement": "Blood pressure after 24 hours", "setting": "[1]; 50 mg/kg p.o.", "result": 169.0, "unit": "mmHg"}, {"measurement": "Blood pressure, basal value", "setting": "[1]; 50 mg/kg p.o., basal value", "result": 168.2, "unit": "mmHg"}, {"measurement": "Blood pressure after 1 hour", "setting": "[2]; 5 mg/kg p.o.", "result": 170.0, "unit": "mmHg"}, {"measurement": "Blood pressure after 2 hours", "setting": "[2]; 5 mg/kg p.o.", "result": 167.5, "unit": "mmHg"}, {"measurement": "Blood pressure after 3 hours", "setting": "[2]; 5 mg/kg p.o.", "result": 175.0, "unit": "mmHg"}, {"measurement": "Blood pressure after 4 hours", "setting": "[2]; 5 mg/kg p.o.", "result": 165.0, "unit": "mmHg"}, {"measurement": "Blood pressure after 5 hours", "setting": "[2]; 5 mg/kg p.o.", "result": 172.5, "unit": "mmHg"}, {"measurement": "Blood pressure after 24 hours", "setting": "[2]; 5 mg/kg p.o.", "result": 165.0, "unit": "mmHg"}, {"measurement": "Blood pressure, basal value", "setting": "[2]; 5 mg/kg p.o.", "result": 165.0, "unit": "mmHg"}, {"measurement": "LD50 at 168 h", "setting": "[3]; p.o., one week observation", "result": 2900, "unit": "mg/kg"}]}, {"smiles": "CC(C)NCC(O)COc1cccc2ccccc12.Cl", "note": "(stereo not drawn) [Propranolol, 1-(1-Naphthyloxy)-3-isopropylamino-2-propanol hydrochloride]", "values": [{"measurement": "Blood pressure after 2 hours", "setting": "[1]; 1 mg/kg p.o.", "result": 170.0, "unit": "mmHg"}, {"measurement": "Blood pressure after 5 hours", "setting": "[1]; 1 mg/kg p.o.", "result": 168.7, "unit": "mmHg"}, {"measurement": "Blood pressure after 24 hours", "setting": "[1]; 1 mg/kg p.o.", "result": 157.5, "unit": "mmHg"}, {"measurement": "Blood pressure, basal value", "setting": "[1]; 1 mg/kg p.o., basal value", "result": 167.5, "unit": "mmHg"}, {"measurement": "Blood pressure after 2 hours", "setting": "[1]; 5 mg/kg p.o.", "result": 178.6, "unit": "mmHg"}, {"measurement": "Blood pressure after 5 hours", "setting": "[1]; 5 mg/kg p.o.", "result": 175.9, "unit": "mmHg"}, {"measurement": "Blood pressure after 24 hours", "setting": "[1]; 5 mg/kg p.o.", "result": 181.8, "unit": "mmHg"}, {"measurement": "Blood pressure, basal value", "setting": "[1]; 5 mg/kg p.o., basal value", "result": 186.4, "unit": "mmHg"}, {"measurement": "Blood pressure after 2 hours", "setting": "[1]; 10 mg/kg p.o.", "result": 170.0, "unit": "mmHg"}, {"measurement": "Blood pressure after 5 hours", "setting": "[1]; 10 mg/kg p.o.", "result": 148.3, "unit": "mmHg"}, {"measurement": "Blood pressure after 24 hours", "setting": "[1]; 10 mg/kg p.o.", "result": 163.7, "unit": "mmHg"}, {"measurement": "Blood pressure, basal value", "setting": "[1]; 10 mg/kg p.o., basal value", "result": 178.0, "unit": "mmHg"}, {"measurement": "ED15", "setting": "[1]; Rattus norvegicus, po", "result": "~10", "unit": "mg/kg"}]}, {"smiles": "Cl.NOCc1ccc([N+](=O)[O-])c(O)c1", "note": "[11,130, 3-hydroxy-4-nitro-benzyloxyamine hydrochloride]", "values": [{"measurement": "Blood pressure after 2 hours", "setting": "[1]; 20 mg/kg p.o.", "result": 183.0, "unit": "mmHg"}, {"measurement": "Blood pressure after 5 hours", "setting": "[1]; 20 mg/kg p.o.", "result": 176.0, "unit": "mmHg"}, {"measurement": "Blood pressure after 24 hours", "setting": "[1]; 20 mg/kg p.o.", "result": 172.0, "unit": "mmHg"}, {"measurement": "Blood pressure, basal value", "setting": "[1]; 20 mg/kg p.o., basal value", "result": 174.0, "unit": "mmHg"}]}, {"smiles": "CCOC(=O)CC(C)=NNc1ccc(Cl)nn1", "note": "[11,473, N^1-(3-Chloro-6-pyridazinyl)-N^2-(1-carbethoxy-2-propylidene)-hydrazine]", "values": [{"measurement": "Blood pressure after 2 hours", "setting": "[1]; 10 mg/kg p.o.", "result": 194.0, "unit": "mmHg"}, {"measurement": "Blood pressure after 5 hours", "setting": "[1]; 10 mg/kg p.o.", "result": 197.0, "unit": "mmHg"}, {"measurement": "Blood pressure after 24 hours", "setting": "[1]; 10 mg/kg p.o.", "result": 198.0, "unit": "mmHg"}, {"measurement": "Blood pressure, basal value", "setting": "[1]; 10 mg/kg p.o., basal value", "result": 195.0, "unit": "mmHg"}, {"measurement": "LD50 at 168 h", "setting": "[3]; p.o., one week observation", "result": 360, "unit": "mg/kg"}]}]}
